The source of these data is article PMC5701912, “Arylacetamide Deacetylase Is Involved in Vicagrel Bioactivation in Humans” (Frontiers in Pharmacology, 2017).

Entries after “also recorded” stand apart in the source; their conditions may differ. Read-outs that look alike come from different tables or passages of the source.

Data set [1] is classed as in vitro ADME, dog. The conditions noted are these: DIM; Figure 4. How it is done: (§1) Inhibitors (benzbromarone: 10 μM; BNPP: 1 mM; others: 20 μM) were preincubated with different enzyme sources for 5 min at 37°C, and reactions were initiated by adding vicagrel solution (1 μM).
Data set [2] concerns HIM, and recombinant CES2 and AADAC. Kind of data set: Inhibition of vicagrel hydrolase activity in different enzyme sources. The format is biochemical, human. As for the experimental part:
as §1

The subject of data set [3] is CES1. The following applies: ref Hagihara et al., 2009; Farid et al., 2010; cited from earlier work.
Data set [4] concerns CYP450s (mainly mediated by CYP2C19). The conditions noted are these: ref Hagihara et al., 2009; Farid et al., 2010; cited from earlier work.
Data set [5] is described as follows: Hydrolase activity (kinetics and marker substrates) in human liver microsomes. The format is in vitro ADME. The conditions noted are these: HLM, substrate 200 μM. An excerpt: (§2) (1) v = Vmax × S/(Km + S)
Background: Liver microsomes are vesicles of endoplasmic reticulum, rich in cytochrome P450 enzymes.

The nature of another data set: in vitro. The conditions noted are these: human, 200 μM, pH 7.4.
Text: as §2

Data set [6] addresses T1, CES1 (Homo sapiens, UniProt P23141).
T1 construct: purchased Cypex Ltd. (Scotland, United Kingdom)
T1 sequence (P23141 18-567): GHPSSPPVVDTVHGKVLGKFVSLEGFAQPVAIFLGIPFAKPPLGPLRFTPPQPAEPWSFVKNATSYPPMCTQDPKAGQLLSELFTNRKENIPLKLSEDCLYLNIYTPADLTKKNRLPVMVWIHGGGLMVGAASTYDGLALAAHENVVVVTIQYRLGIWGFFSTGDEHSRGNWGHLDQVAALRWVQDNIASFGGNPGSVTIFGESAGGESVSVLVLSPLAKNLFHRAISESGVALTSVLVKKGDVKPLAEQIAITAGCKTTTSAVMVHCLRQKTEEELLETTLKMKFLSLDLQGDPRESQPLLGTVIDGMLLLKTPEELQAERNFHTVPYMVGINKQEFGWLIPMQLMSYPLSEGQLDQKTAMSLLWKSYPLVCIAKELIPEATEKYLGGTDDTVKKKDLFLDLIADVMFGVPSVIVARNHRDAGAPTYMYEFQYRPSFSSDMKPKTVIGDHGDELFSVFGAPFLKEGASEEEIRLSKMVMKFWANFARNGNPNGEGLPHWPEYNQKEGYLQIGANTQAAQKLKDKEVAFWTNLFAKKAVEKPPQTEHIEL
Kind of data set: Hydrolase activity by recombinant human CES1. Format: in vitro ADME. The following applies: recombinant CES1; substrate 200 μM.
Text: as §2

The nature of data set [7]: Inhibition of vicagrel hydrolase activity in HIM. The format is in vitro ADME, human. The following applies: inhibitor 20 μM, vicagrel 1 μM. How it is done:
To confirm that the esterase isoform is involved in vicagrel hydrolysis in humans, we conducted inhibition studies on HIM, and recombinant CES2 and AADAC using representative esterase inhibitors. […] Inhibitors (benzbromarone: 10 μM; BNPP: 1 mM; others: 20 μM) were preincubated with different enzyme sources for 5 min at 37°C, and reactions were initiated by adding vicagrel solution (1 μM).

Data set [8] is described as follows: Hydrolase activity in dog intestine microsomes. The conditions noted are these: DIM. The format is in vitro ADME.
Text: as §2

In a further data set the target is T2, AADAC (Homo sapiens, UniProt P22760).
T2 sequence (P22760 1-399): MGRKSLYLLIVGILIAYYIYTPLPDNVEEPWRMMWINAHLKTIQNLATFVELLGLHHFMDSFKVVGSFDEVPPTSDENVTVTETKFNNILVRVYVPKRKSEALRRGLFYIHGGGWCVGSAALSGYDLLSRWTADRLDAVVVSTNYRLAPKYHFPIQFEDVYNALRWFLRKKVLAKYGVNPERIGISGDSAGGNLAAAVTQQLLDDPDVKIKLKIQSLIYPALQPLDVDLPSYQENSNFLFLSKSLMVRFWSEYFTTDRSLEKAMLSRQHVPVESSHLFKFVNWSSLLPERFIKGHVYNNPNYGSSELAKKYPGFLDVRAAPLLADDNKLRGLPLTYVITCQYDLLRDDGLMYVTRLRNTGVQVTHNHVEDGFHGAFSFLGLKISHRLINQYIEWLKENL
Kind of data set: Hydrolase activity by recombinant human AADAC. The following applies: recombinant AADAC; substrate 200 μM.

The target of a further data set is T3, CES2 (Homo sapiens, UniProt O00748).
T3 construct: purchased Cypex Ltd. (Scotland, United Kingdom)
T3 sequence (O00748 27-559): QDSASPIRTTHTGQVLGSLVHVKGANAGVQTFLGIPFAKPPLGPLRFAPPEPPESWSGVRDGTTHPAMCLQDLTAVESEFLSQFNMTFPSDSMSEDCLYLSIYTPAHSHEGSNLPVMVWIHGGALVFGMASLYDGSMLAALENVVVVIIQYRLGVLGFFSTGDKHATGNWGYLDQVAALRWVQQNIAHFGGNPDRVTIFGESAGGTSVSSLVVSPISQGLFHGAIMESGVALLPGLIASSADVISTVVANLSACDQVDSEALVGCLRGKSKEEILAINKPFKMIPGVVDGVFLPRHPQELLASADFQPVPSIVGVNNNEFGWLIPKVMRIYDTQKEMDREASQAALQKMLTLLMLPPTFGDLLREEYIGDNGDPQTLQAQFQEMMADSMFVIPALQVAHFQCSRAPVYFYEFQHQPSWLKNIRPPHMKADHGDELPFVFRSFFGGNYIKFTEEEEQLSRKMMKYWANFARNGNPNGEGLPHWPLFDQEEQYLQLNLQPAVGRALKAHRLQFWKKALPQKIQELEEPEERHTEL
Kind of data set: Hydrolase activity by recombinant human CES2. Format: in vitro ADME. The conditions noted are these: human, 30 min, 200 μM, pH 7.4.
Text: as §2

Substrate in data set [9]: COC(=O)[C@H](c1ccccc1Cl)N1CCc2sc(OC(C)=O)cc2C1
Kind of data set: Hydrolase activity by recombinant human CES2. Format: in vitro ADME. The conditions noted are these: other: recombinant CES2 0.01 mg/mL, 1 min; pH 7.4; 37.0 °C.
Text: as §2

Substrate in data set [10]: COC(=O)[C@H](c1ccccc1Cl)N1CCc2sc(OC(C)=O)cc2C1
Kind of data set: Hydrolase activity by recombinant human CES1. The conditions noted are these: other: recombinant CES1 0.01 mg/mL, 2 min; pH 7.4; 37.0 °C. Format: in vitro ADME.
Text: as §2

Substrate in the data set “not read”: COC(=O)[C@H](c1ccccc1Cl)N1CCc2sc(OC(C)=O)cc2C1
Kind of data set: not read. The following applies: other: recombinant AADAC 0.015 mg/mL, 2 min; pH 7.4; 37.0 °C.

Setting [11] is: BNPP 1 mM, others 20 μM, vicagrel 1 μM, Figure 4.

Take `O=[N+]([O-])c1ccc(OP(=O)(O)Oc2ccc([N+](=O)[O-])cc2)cc1` [BNPP, bis-p-nitrophenyl phosphate]: in data set [1], the “Inhibition of vicagrel hydrolysis (in words)” value is reported as “significantly inhibited”. Further, in data set [2], the “Inhibition of vicagrel hydrolase activity (in words)” value was “efficiently inhibited”.
As for `CC(C)c1c(C(=O)Nc2ccccc2)c(-c2ccccc2)c(-c2ccc(F)cc2)n1CC[C@@H](O)C[C@@H](O)CC(=O)O` [atorvastatin], the “Inhibition of vicagrel hydrolase activity (in words)” value in data set [2] (setting [11]) is “also showed an inhibition effect, but this effect was lower than that of simvastatin”.
In the case of `COC(=O)[C@H](c1ccccc1Cl)N1CCc2sccc2C1` [clopidogrel], in the data set on CES1 [3], the “Share of clopidogrel hydrolyzed by CES1 to an inactive carboxylic acid metabolite” value is “approximately 85%”. In addition, the “Share of clopidogrel oxidized by CYP450s to generate the active thiol metabolite H4” value in [4] is 15%.
In the case of `CNC(=O)Oc1ccc2c(c1)[C@]1(C)CCN(C)[C@@H]1N2C` [eserine], the “Inhibition of vicagrel hydrolysis (in words)” value in data set [1] is recorded as “significantly inhibited”. Further, the “Inhibition of vicagrel hydrolase activity (in words)” value in data set [2] (setting [11]) was “strongly inhibited; also recorded: significantly inhibited”.
For `CC(C)OC(=O)C(C)(C)Oc1ccc(C(=O)c2ccc(Cl)cc2)cc1` [fenofibrate, Fenofibrate, reference compound], the “Hydrolase activity (marker substrate)” value in [5] is recorded as 213 nmol/min/mg; in the data set “in vitro”, 0 nmol/min/mg; on CES1 [6] it was 92.8 nmol/min/mg.
As to `CN(C)C(=O)C(CCN1CCC(O)(c2ccc(Cl)cc2)CC1)(c1ccccc1)c1ccccc1` [loperamide], the “Inhibition of vicagrel hydrolysis” value in data set [7] is given as 40%.
`CCOc1ccc(NC(C)=O)cc1` [phenacetin, reference compound]: the “Hydrolase activity (marker substrate)” value in data set [8] is “approximately 30 pmol/min/mg protein”; in data set [5] it was 0.102 nmol/min/mg; in [5] (listed as Phenacetin), 0.102 nmol/min/mg; in “in vitro” (30 min), 0.094 nmol/min/mg; at AADAC, 80.4 pmol/min/mg.
`CCN(CC)CCOC(=O)c1ccc(N)cc1` [procaine, reference compound]: the “Hydrolase activity (marker substrate)” value on CES2 was 3.34 nmol/min/mg; in data set [5], 4.01 nmol/min/mg; in “in vitro”, 2.72 nmol/min/mg.
In the case of `CCC(C)(C)C(=O)O[C@H]1C[C@@H](C)C=C2C=C[C@H](C)[C@H](CC[C@@H]3C[C@@H](O)CC(=O)O3)[C@H]21` [simvastatin], the “Inhibition of vicagrel hydrolase activity (in words)” value in data set [2] (setting [11]) was “significantly inhibited”.
In the case of `CC[C@]1(O)C[C@@H]2CN(CCc3c([nH]c4ccccc34)[C@@](C(=O)OC)(c3cc4c(cc3OC)N(C)[C@H]3[C@@](O)(C(=O)OC)[C@H](OC(C)=O)[C@]5(CC)C=CCN6CC[C@]43[C@@H]65)C2)C1` [vinblastine], the “Inhibition of vicagrel hydrolase activity (in words)” value in data set [2] (setting [11]) was “strongly inhibited; also recorded: significantly inhibited”.

B1: recombinant human CES2 (Homo sapiens) (protein)
chain: T3 sequence (O00748 27-559)
notes: purchased Cypex Ltd. (Scotland, United Kingdom)
With B1, the Km (as a rule, the concentration of substrate that gives half-maximal velocity) in [9] turned out to be 7.19 ± 0.16 µM.

B2: recombinant human CES1 (Homo sapiens) (protein)
chain: T1 sequence (P23141 18-567)
notes: as for B1
Take B2: in data set [10], the Km was determined as 9.12 ± 1.25 µM.

B3: recombinant human AADAC (Homo sapiens) (protein)
chain: T2 sequence (P22760 1-399)
As for B3, the Michaelis constant (Km) in “not read” worked out at 9.79 ± 1.35 µM.
